The record followed here is patent US8957075B2, “O-GlcNAc transferase inhibitors and uses thereof” (priority 2009, dated 2015).

T1 sequence (O15294 382-1046, species assumed): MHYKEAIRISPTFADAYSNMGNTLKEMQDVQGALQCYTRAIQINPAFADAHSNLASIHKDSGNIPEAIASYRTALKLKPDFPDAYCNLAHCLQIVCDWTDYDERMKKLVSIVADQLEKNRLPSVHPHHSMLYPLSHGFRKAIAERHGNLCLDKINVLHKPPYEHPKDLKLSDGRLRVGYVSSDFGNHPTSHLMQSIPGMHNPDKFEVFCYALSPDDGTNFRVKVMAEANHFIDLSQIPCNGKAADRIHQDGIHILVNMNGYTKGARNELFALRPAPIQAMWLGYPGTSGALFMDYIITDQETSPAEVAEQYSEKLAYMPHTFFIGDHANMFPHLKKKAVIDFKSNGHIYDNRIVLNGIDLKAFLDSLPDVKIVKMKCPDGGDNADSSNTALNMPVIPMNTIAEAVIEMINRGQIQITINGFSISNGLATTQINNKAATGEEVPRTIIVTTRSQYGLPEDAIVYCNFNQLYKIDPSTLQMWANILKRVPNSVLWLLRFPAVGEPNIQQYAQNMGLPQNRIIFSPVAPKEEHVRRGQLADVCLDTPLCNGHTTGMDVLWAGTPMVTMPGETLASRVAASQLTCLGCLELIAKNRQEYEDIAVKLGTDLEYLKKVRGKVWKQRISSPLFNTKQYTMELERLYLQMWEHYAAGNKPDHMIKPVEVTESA

One assay has as its system HEK293 cells. Kind of assay: Glucosamine-induced cellular-wide O-GlcNAcylation changes in HEK cells (western blot, CTD110.6 antibody). It is filed as cell-based. The following applies: 12.5 μM compound, 4 mM glucosamine, 16 hours. As to the method:
The efficacy of the inhibitor in cell culture was evaluated by adding compound N08 to HEK293 cells.HEK293 cells were grown in 6 well plates using low glucose (5 mM) DMEM with 10% FBS as the media. […] After mixing the compounds the media was removed from the cultured cells and the inhibitor-media solutions was added to the cells. After cells were incubated with the inhibitors for 16 hours (overnight), the cells were rinsed with PBS, removed using cell scrapers, transferred to 1.5 ml microcentrifuge tubes, pelleted by centrifugation, and lysed by resuspending in 100 μl RIPA buffer with protease and phosphatase inhibitor cocktails (SIGMA). After incubating on ice the debris were pelleted down, and the supernatant was collected as whole cell lysate. Total protein concentration of each sample was determined by Bradford Assay in order to normalize levels of protein loaded onto a gel. Then 2×SDS-PAGE sample buffer was added to each sample, they were boiled for 10 minutes, and loaded onto a denaturing polyacrylamide gel (4-20% gradient), transferred to nitrocellulose membrane, blocked with 1% BSA for 1 hour, and probed with the monoclonal O-GlcNAc antibody, CTD110.6 (Covance), incubated at a 1:5000 dilution in 1% BSA overnight at 4° C., followed by addition of anti-mouse HRP secondary antibody. Pierce SuperSignal West Pico Chemiluminescent substrate was added to perform the western blot.
For orientation: A western blot detects proteins with antibodies after separation by electrophoresis.
`O=C(C(NS(=O)(=O)c1ccc2[nH]c(=O)ccc2c1)c1ccccc1)N(Cc1ccco1)Cc1cccs1` (stereo not shown) [Example 3, N-(furan-2-ylmethyl)-2-(2-oxo-1,2-dihydroquinoline-6-sulfonamido)-2-phenyl-N-(thiophen-2-ylmethyl)acetamide]: the “Effect on glucosamine-induced cellular-wide O-GlcNAcylation” value is on record as “reduces glucosamine-induced cellular-wide O-GlcNAcylation changes to normal levels”.

In another assay the target is T1, sOGT (Homo sapiens (Human), UniProt O15294). Kind of assay: Fluorescence polarization screen of quinolinesulfonamide library for OGT inhibition (displacement of fluorescein-linked UDP-GlcNAc analog). It is filed as binding. The conditions noted are these: rough Ki values from fluorescence polarization results and Kd of the probe; 1-2 μM sOGT, 50 nM probe. As to the method:
Compound libraries of the 4 concentrations in duplicated were then transferred to the assay plates using a 100 nL pin array, resulting in a final compound concentration of 25 μg/mL or ˜70 μM at the highest of the four concentrations, assuming an average compound MW of 350. Using a Perkin Elmer Envision® microplate reader, the sample was excited at 480 nm in the vertical plane, and simultaneous emission intensity (535 nm) of the vertical and horizontal polarization planes was measured. The polarization was calculated using the following equation: eq4: mP=1000*(V−G*H)/(V+G*H) where: mP=millipolarization units, V=intensity of vertically polarized emission (RFU), H=intensity of horizontally polarized emission (RFU), and G=gain.
On the technique in general: Fluorescence polarisation rises when a labelled molecule tumbles more slowly, as on binding a larger partner.
Take `Cc1cccc(N(C)C(=O)C(NS(=O)(=O)c2ccc3c(c2)CCC(=O)N3)c2ccccc2)c1` (stereo not shown): the affinity corresponds to a Ki of 7.4 µM. `COc1cccc(N2CCN(C(=O)C(NS(=O)(=O)c3ccc4c(c3)CCC(=O)N4)c3ccccc3)CC2)c1` (stereo not shown): the Ki (in general, a measure of affinity in units of concentration, obtained from inhibition or displacement) was determined as 6.3 µM. On the same count and under the same terms, the value for `O=C1CCc2cc(S(=O)(=O)NC(C(=O)NCc3ccc(Cl)cc3)c3ccccc3)ccc2N1` (stereo not shown) was 6.6 µM; that for `O=C1CCc2cc(S(=O)(=O)NC(C(=O)N3CCC(Cc4ccccc4)CC3)c3ccccc3)ccc2N1` (stereo not shown) was 2 µM; that for `Cc1cccc(C)c1NC(=O)C(NS(=O)(=O)c1ccc2c(c1)CCC(=O)N2)c1ccccc1` (stereo not shown) was 37 µM. On the same count and under the same terms, then `O=C1CCc2cc(S(=O)(=O)NC(C(=O)N3CCN(c4ccccn4)CC3)c3ccccc3)ccc2N1` (stereo not shown), with 4.2 µM.

In the case of `CCc1cccc(C)c1NC(=O)C(NS(=O)(=O)c1ccc2c(c1)CCC(=O)N2)c1ccccc1` (stereo not shown), the Ki is 97 µM.

`O=C1CCc2cc(S(=O)(=O)NC(C(=O)N3CCN(C4CCCCC4)CC3)c3ccccc3)ccc2N1` (stereo not shown) came in with a Ki of 20 µM.

As to `Cc1ccc(NC(=O)C(NS(=O)(=O)c2ccc3c(c2)CCC(=O)N3)c2ccccc2)c(Br)c1` (stereo not shown), the Ki came to 52 µM. Compound `O=C1CCc2cc(S(=O)(=O)NC(C(=O)N3CCN(C(=O)c4ccco4)CC3)c3ccccc3)ccc2N1` (stereo not shown) gave an inhibition constant Ki of 11 µM. The compound `Cc1ccc(N2CCN(C(=O)C(NS(=O)(=O)c3ccc4c(c3)CCC(=O)N4)c3ccccc3)CC2C)cc1` (stereo not shown) came in with an inhibition constant Ki of 3.2 µM. On the same count and under the same terms, then `CC(c1cccs1)N(Cc1ccco1)C(=O)C(NS(=O)(=O)c1ccc2c(c1)CCC(=O)N2)c1ccccc1` (stereo not shown), with 1.6 µM; and `Cc1cc(C)c(NC(=O)C(NS(=O)(=O)c2ccc3c(c2)CCC(=O)N3)c2ccccc2)c(C)c1` (stereo not shown), with 5.6 µM; and `CCN(CC)C(=O)C(NS(=O)(=O)c1ccc2c(c1)CCC(=O)N2)c1ccccc1` (stereo not shown), with 21 µM. On the same count and under the same terms, the value for `O=C(O)CC(NS(=O)(=O)c1ccc2c(c1)CCC(=O)N2)c1cccc(Cl)c1` (stereo not shown) was 15 µM. As to `CN(Cc1ccco1)C(=O)C(Cc1ccccc1)NS(=O)(=O)c1ccc2c(c1)CCC(=O)N2` (stereo not shown), the Ki stood at 13 µM.

As for `CCOc1ccccc1NS(=O)(=O)c1ccc2[nH]c(=O)ccc2c1`, the Ki came to 4.7 µM. The same measure, in the same setting: the value for `COc1ccc(NS(=O)(=O)c2ccc3[nH]c(=O)ccc3c2)cc1OC` was 7.2 µM; that for `Cc1ccc(N2CCN(C(=O)C(NS(=O)(=O)c3ccc4c(c3)CCC(=O)N4)c3ccccc3)CC2)cc1` (stereo not shown) was 9 µM. On the same count and under the same terms, the value for `CN(CC(=O)Nc1nc2ccc(Cl)cc2s1)S(=O)(=O)c1ccc2[nH]c(=O)ccc2c1` was 60 µM. Same read-out and setting: then `O=C1CCc2cc(S(=O)(=O)NC(C(=O)NCc3ccccc3)c3ccccc3)ccc2N1` (stereo not shown), with 125 µM. Consider `COc1cc2c(cc1OC)C(C)N(S(=O)(=O)c1ccc3[nH]c(=O)ccc3c1)CC2` (stereo not shown), for which the Ki came to 50 µM. Same read-out and setting: the value for `O=C1CCc2cc(S(=O)(=O)NC(C(=O)N(Cc3ccco3)Cc3cccs3)c3ccccc3)ccc2N1` (stereo not shown) was 4 µM; that for `CC(C)N(Cc1ccccc1)C(=O)C(NS(=O)(=O)c1ccc2c(c1)CCC(=O)N2)c1ccccc1` (stereo not shown) [drawing 86] was 5.7 µM; that for `CC(C)N(Cc1ccccc1)C(=O)C(NS(=O)(=O)c1ccc2c(c1)CCC(=O)N2)c1ccccc1` (stereo not shown) [drawing 98] was 7 µM. `O=C(C(NS(=O)(=O)c1ccc2[nH]c(=O)ccc2c1)c1ccccc1)N(Cc1ccco1)Cc1cccs1` (stereo not shown) [drawing 100] came in with a Ki of 0.4 µM.

Another assay concerns the target T1, sOGT. Kind of assay: Secondary assay: transfer of UDP-14C-GlcNAc to casein kinase II derived peptide by sOGT. In kind it is biochemical. The following applies: 500 μM peptide, 6.25 μM UDP-14C-GlcNAc, ~20-40 nM sOGT; read-out: IC50 (OGT inhibition).
Procedure: Hits were examined in a secondary assay involving the transfer of UDP-^14C-GlcNAc to a peptide derived from casein kinase II, which contains a known OGT glycosylation site, as described by Hart and co-workers (see manuscript, reference 4). Three lysines and a tyrosine were added to the N-terminus of this peptide substrate ([sequence]) to allow capture on phosphocellulose discs and UV detection, respectively. […] Reactions were spotted on Whatman P81 phosphocellulose discs, washed three times for five minutes in 1% phosphoric acid, and counted by liquid scintillation counting. IC50s curves were determined from the counts of the reactions and IC50s were determined.
For the compound `O=C(C(NS(=O)(=O)c1ccc2[nH]c(=O)ccc2c1)c1ccccc1)N(Cc1ccco1)Cc1cccs1` (stereo not shown) [Example 3, N-(furan-2-ylmethyl)-2-(2-oxo-1,2-dihydroquinoline-6-sulfonamido)-2-phenyl-N-(thiophen-2-ylmethyl)acetamide], the half-inhibitory concentration (IC50) – broadly, the concentration needed to halve the response being measured – is 0.39 µM.
